For 13 molecules, Ki results are on record in ChEMBL document CHEMBL2440100, “Therapeutic potential of the peptide leucine arginine as a new nonplant bowman-birk-like serine protease inhibitor” (J Med Chem, 2013).

Where a SMILES comes first, the peptide text is derived from it. Bridges are numbered along the chain shown (N, C = ends).

A short description of this experiment: Inhibition of bovine trypsin using benzoyl-L-arginine p-nitroanilide as substrate after 5 to 60 mins. Also on record: species or system Bos taurus.
Regarding `CC(C)C[C@H](N)C(=O)N[C@H](C(=O)N[C@@H](CCCNC(=N)N)C(=O)NCC(=O)N[C@H]1CSSC[C@@H](C(=O)N[C@@H](Cc2ccccc2)C(=O)N[C@H](C(=O)N[C@@H](CCCNC(=N)N)C(=O)O)C(C)C)NC(=O)[C@@H]2CCCN2C(=O)[C@H](CCCCN)NC(=O)[C@@H]2CCCN2C(=O)[C@@H]2CCCN2C(=O)[C@H](Cc2ccc(O)cc2)NC(=O)[C@H](C)NC(=O)[C@H](CCCCN)NC(=O)[C@H]([C@@H](C)O)NC(=O)[C@H](Cc2c[nH]c3ccccc23)NC1=O)C(C)C` (H-LVRGCWTKAYPPKPCFVR-OH; disulfide 5-15), affinity was put at a Ki of 0.245 µM. The result for `CC(C)C[C@H](N)C(=O)N[C@H](C(=O)N[C@@H](CCCNC(=N)N)C(=O)NCC(=O)N[C@H]1CSSC[C@@H](C(=O)O)NC(=O)[C@@H]2CCCN2C(=O)[C@H](CCCCN)NC(=O)[C@@H]2CCCN2C(=O)[C@@H]2CCCN2C(=O)[C@H](Cc2ccc(O)cc2)NC(=O)[C@H](CO)NC(=O)[C@H](CCCCN)NC(=O)[C@H]([C@@H](C)O)NC(=O)[C@H](Cc2c[nH]c3ccccc23)NC1=O)C(C)C` (H-LVRGCWTKSYPPKPC-OH; disulfide 5-15) reads 0.322 µM; that for `CC(C)C[C@H](N)C(=O)N[C@H](C(=O)N[C@@H](CCCNC(=N)N)C(=O)NCC(=O)N[C@H]1CSSC[C@@H](C(=O)N[C@@H](Cc2ccccc2)C(=O)N[C@H](C(=O)N[C@@H](CCCNC(=N)N)C(=O)O)C(C)C)NC(=O)[C@H](C)NC(=O)[C@H](CCCCN)NC(=O)[C@@H]2CCCN2C(=O)[C@@H]2CCCN2C(=O)[C@H](Cc2ccc(O)cc2)NC(=O)[C@H](CO)NC(=O)[C@H](CCCCN)NC(=O)[C@H]([C@@H](C)O)NC(=O)[C@H](Cc2c[nH]c3ccccc23)NC1=O)C(C)C` (H-LVRGCWTKSYPPKACFVR-OH; disulfide 5-15), 0.252 µM; that for `CC(C)C[C@H](N)C(=O)N[C@H](C(=O)N[C@@H](CCCNC(=N)N)C(=O)NCC(=O)N[C@H]1CSSC[C@@H](C(=O)N[C@@H](Cc2ccccc2)C(=O)N[C@H](C(=O)N[C@@H](CCCNC(=N)N)C(=O)O)C(C)C)NC(=O)[C@H](CCCCN)NC(=O)[C@@H]2CCCN2C(=O)[C@@H]2CCCN2C(=O)[C@H](Cc2ccc(O)cc2)NC(=O)[C@H](CO)NC(=O)[C@H](CCCCN)NC(=O)[C@H]([C@@H](C)O)NC1=O)C(C)C` (H-LVRGCTKSYPPKCFVR-OH; disulfide 5-13), 0.245 µM.

`CC(C)C[C@H](N)C(=O)N[C@H](C(=O)N[C@@H](CCCNC(=N)N)C(=O)NCC(=O)N[C@H]1CSSC[C@@H](C(=O)N[C@@H](Cc2ccccc2)C(=O)N[C@H](C(=O)N[C@@H](CCCNC(=N)N)C(=O)O)C(C)C)NC(=O)[C@@H]2CCCN2C(=O)[C@H](CCCCN)NC(=O)[C@H](C)NC(=O)[C@@H]2CCCN2C(=O)[C@H](Cc2ccc(O)cc2)NC(=O)[C@H](CO)NC(=O)[C@H](CCCCN)NC(=O)[C@H]([C@@H](C)O)NC(=O)[C@H](Cc2c[nH]c3ccccc23)NC1=O)C(C)C` (H-LVRGCWTKSYPAKPCFVR-OH; disulfide 5-15): affinity was put at a Ki of 0.155 µM.

For the molecule `CC(C)C[C@H](N)C(=O)N[C@H](C(=O)N[C@@H](CCCNC(=N)N)C(=O)NCC(=O)N[C@H]1CSSC[C@@H](C(=O)N[C@@H](Cc2ccccc2)C(=O)N[C@H](C(=O)N[C@@H](CCCNC(=N)N)C(=O)O)C(C)C)NC(=O)[C@@H]2CCCN2C(=O)[C@H](CCCCN)NC(=O)[C@@H]2CCCN2C(=O)[C@@H]2CCCN2C(=O)[C@H](Cc2ccc(O)cc2)NC(=O)[C@H](CO)NC(=O)[C@H](CCCCN)NC(=O)[C@H](C)NC(=O)[C@H](Cc2c[nH]c3ccccc23)NC1=O)C(C)C` (H-LVRGCWAKSYPPKPCFVR-OH; disulfide 5-15), the Ki (usually the dissociation constant of the complex between target and ligand, obtained from inhibition or displacement) stood at 1.11 µM. `CC(C)C[C@H](NC(=O)[C@H](C)NC(=O)CN)C(=O)N[C@@H](CCCNC(=N)N)C(=O)NCC(=O)N[C@H]1CSSC[C@@H](C(=O)N[C@@H](CCCCN)C(=O)O)NC(=O)[C@@H]2CCCN2C(=O)[C@H](CCCCN)NC(=O)[C@@H]2CCCN2C(=O)[C@@H]2CCCN2C(=O)[C@H](Cc2ccc(O)cc2)NC(=O)[C@H](CO)NC(=O)[C@H](CCCCN)NC(=O)[C@H]([C@@H](C)O)NC(=O)[C@H](Cc2c[nH]c3ccccc23)NC1=O` (H-GALRGCWTKSYPPKPCK-OH; disulfide 6-16) returned a Ki of 0.116 µM. `CC(C)C[C@H](N)C(=O)N[C@H](C(=O)N[C@@H](CCCNC(=N)N)C(=O)NCC(=O)N[C@H]1CSSC[C@@H](C(=O)N[C@@H](Cc2ccccc2)C(=O)N[C@H](C(=O)N[C@@H](CCCNC(=N)N)C(=O)O)C(C)C)NC(=O)[C@@H]2CCCN2C(=O)[C@H](CCCCN)NC(=O)[C@@H]2CCCN2C(=O)[C@@H]2CCCN2C(=O)[C@H](C)NC(=O)[C@H](CO)NC(=O)[C@H](CCCCN)NC(=O)[C@H]([C@@H](C)O)NC(=O)[C@H](Cc2c[nH]c3ccccc23)NC1=O)C(C)C` (H-LVRGCWTKSAPPKPCFVR-OH; disulfide 5-15) showed a Ki of 0.142 µM. Regarding `CC(C)C[C@H](N)C(=O)N[C@H](C(=O)N[C@@H](CCCNC(=N)N)C(=O)NCC(=O)N[C@H]1CSSC[C@@H](C(=O)N[C@@H](Cc2ccccc2)C(=O)N[C@H](C(=O)N[C@@H](CCCNC(=N)N)C(=O)O)C(C)C)NC(=O)[C@@H]2CCCN2C(=O)[C@H](C)NC(=O)[C@@H]2CCCN2C(=O)[C@@H]2CCCN2C(=O)[C@H](Cc2ccc(O)cc2)NC(=O)[C@H](CO)NC(=O)[C@H](CCCCN)NC(=O)[C@H]([C@@H](C)O)NC(=O)[C@H](Cc2c[nH]c3ccccc23)NC1=O)C(C)C` (H-LVRGCWTKSYPPAPCFVR-OH; disulfide 5-15), the Ki was found to be 0.4 µM. To `CC(C)C[C@H](N)C(=O)N[C@H](C(=O)N[C@@H](CCCNC(=N)N)C(=O)NCC(=O)N[C@H]1CSSC[C@@H](C(=O)N[C@@H](Cc2ccccc2)C(=O)N[C@H](C(=O)N[C@@H](CCCNC(=N)N)C(=O)O)C(C)C)NC(=O)[C@@H]2CCCN2C(=O)[C@H](CCCCN)NC(=O)[C@@H]2CCCN2C(=O)[C@@H]2CCCN2C(=O)[C@H](Cc2ccc(O)cc2)NC(=O)[C@H](CO)NC(=O)[C@H](CCCCN)NC(=O)[C@H]([C@@H](C)O)NC(=O)[C@H](C)NC1=O)C(C)C` (H-LVRGCATKSYPPKPCFVR-OH; disulfide 5-15) belongs 0.67 µM.

`C[C@@H](O)[C@@H]1NC(=O)[C@H](Cc2c[nH]c3ccccc23)NC(=O)[C@@H](N)CSSC[C@@H](C(=O)O)NC(=O)[C@@H]2CCCN2C(=O)[C@H](CCCCN)NC(=O)[C@@H]2CCCN2C(=O)[C@@H]2CCCN2C(=O)[C@H](Cc2ccc(O)cc2)NC(=O)[C@H](CO)NC(=O)[C@H](CCCCN)NC1=O` yielded a Ki of 0.335 µM. The molecule `C[C@H](NC(=O)[C@@H](N)CO)C(=O)N1CCC[C@H]1C(=O)N[C@@H](CCCNC(=N)N)C(=O)NCC(=O)N[C@H]1CSSC[C@@H](C(=O)N[C@@H](CCCCN)C(=O)O)NC(=O)[C@@H]2CCCN2C(=O)[C@H](CCCCN)NC(=O)[C@@H]2CCCN2C(=O)[C@@H]2CCCN2C(=O)[C@H](Cc2ccc(O)cc2)NC(=O)[C@H](CO)NC(=O)[C@H](CCCCN)NC(=O)[C@H]([C@@H](C)O)NC(=O)[C@H](Cc2c[nH]c3ccccc23)NC1=O` (H-SAPRGCWTKSYPPKPCK-OH; disulfide 6-16) had a Ki of 0.129 µM. Molecule `CC[C@H](C)[C@@H]1NC(=O)[C@@H]2CCCN2C(=O)[C@@H]2CCCN2C(=O)[C@H]([C@@H](C)CC)NC(=O)[C@H](CO)NC(=O)[C@H](CCCCN)NC(=O)[C@H]([C@@H](C)O)NC(=O)[C@@H](NC(=O)[C@H](CCCNC(=N)N)NC(=O)CN)CSSC[C@@H](C(=O)N[C@@H](Cc2ccccc2)C(=O)N2CCC[C@H]2C(=O)N[C@@H](CC(=O)O)C(=O)O)NC1=O` showed a Ki of 0.02 µM.
